In brackets after ≈: the same amount, converted by molar mass.

This experiment has as its system Acinetobacter baumannii. The experiment in a line: Antibacterial activity against Acinetobacter baumannii GIL1 isolate harboring intrinsic blaOXA-51/69-like gene by Etest method. Format: functional.

On to `NCC[C@H](O)C(=O)N[C@@H]1C[C@H](N)[C@@H](O[C@H]2O[C@H](CN)[C@@H](O)[C@H](O)[C@H]2O)[C@H](O)[C@H]1O[C@H]1O[C@H](CO)[C@@H](O)[C@H](N)[C@H]1O` [AMIKACIN], for which the MIC is above 256 µg/mL.

For the compound `O=C(O)c1cn(C2CC2)c2cc(N3CCNCC3)c(F)cc2c1=O` [CIPROFLOXACIN], the minimal inhibitory concentration (MIC) was above 32 µg/mL.

`C[C@@H](O)[C@H]1C(=O)N2C(C(=O)O)=C(SCCNC=N)C[C@H]12` [IMIPENEM ANHYDROUS] showed an MIC above 32 µg/mL.

`C[C@@H](O)[C@H]1C(=O)N2C(C(=O)O)=C(S[C@@H]3CN[C@H](C(=O)N(C)C)C3)[C@H](C)[C@H]12` [MEROPENEM]: the MIC was above 32 µg/mL.

Take `CO[C@H]1/C=C/O[C@@]2(C)Oc3c(C)c(O)c4c(O)c(c(/C=N/N5CCN(C)CC5)c(O)c4c3C2=O)NC(=O)/C(C)=C\C=C\[C@H](C)[C@H](O)[C@@H](C)[C@@H](O)[C@@H](C)[C@H](OC(C)=O)[C@@H]1C` [RIFAMPIN]: it took 3 µg/mL (≈ 3.65 µM) to inhibit growth (MIC).

`CC1(C)[C@H](C(=O)O)N2C(=O)C[C@H]2S1(=O)=O` [SULBACTAM] had a minimum inhibitory concentration (MIC) of 48 µg/mL (≈ 206 µM).

On to `CN(C)c1cc(NC(=O)CNC(C)(C)C)c(O)c2c1C[C@H]1C[C@H]3[C@H](N(C)C)C(O)=C(C(N)=O)C(=O)[C@@]3(O)C(O)=C1C2=O` [TIGECYCLINE], for which the MIC was 6 µg/mL (≈ 10.2 µM).

Compound COLISTIN gave an MIC of 0.5 µg/mL.

For orientation: MIC means the lowest concentration that inhibits growth of the organism. A lower MIC goes with inhibition by little substance.
